Test results as given in publication PMC7539012, “Hyperphosphorylated tau aggregation and cytotoxicity modulators screen identified prescription drugs linked to Alzheimer's disease and cognitive functions” (Scientific Reports, 2020).
Counter-ions that a name gives are not always drawn.

Tested on: T1, 1N4R p-tau
T1 construct: made in house; host or cells: E. coli (PIMAX system)
Assay: p-tau aggregation modulator screen of 1280-compound library (ThS fluorescence net change over 16 h);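 as to ThS net change: 30 µM compound with 6 µM p-tau over 16 h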
Type: biochemical
Design: key to PTAI>2SD: *: PTAI>2SD
Conditions: not given

First: CC[C@]12CCCN3CCc4c(n(c5ccccc45)C(=O)C1)[C@@H]32 [Eburnamonine (-)]
Second: CC(C)c1c(CN(C)C(C)Cc2ccccc2)n(C)n(-c2ccccc2)c1=O (stereo not shown) [Famprofazone]
The ThS net change of the first is lower: 379 for the first, 477 for the second.

First: Clc1ccc(COC(Cn2ccnc2)c2ccc(Cl)cc2Cl)cc1 (stereo not shown) [Econazole nitrate]
Second: CCOC(=O)c1cncn1[C@H](C)c1ccccc1 [Etomidate]
The ThS net change of the first is lower: 309 for the first, 447 for the second.

Going from `C[C@H](N[C@@H](CCc1ccccc1)C(=O)O)C(=O)N1CCC[C@H]1C(=O)O.O.O` [Enalaprilat dihydrate] to `COc1cccc2c1C(=O)c1c(O)c3c(c(O)c1C2=O)C[C@@](O)(C(=O)CO)C[C@@H]3O[C@H]1C[C@H](N)[C@@H](O)[C@H](C)O1` [Epirubicin hydrochloride], the ThS net change falls from 438 to 315.

Compared with `C[C@]12CC[C@H](O)C[C@@H]1CC[C@@H]1[C@@H]2CC[C@]2(C)C(=O)CC[C@@H]12` [Epiandrosterone], `C[C@]12C[C@H]3S[C@H]3C[C@@H]1CC[C@@H]1[C@@H]2CC[C@]2(C)[C@@H](O)CC[C@@H]12` [Epitiostanol] is lower in ThS net change: 440 for the first, 421 for the second.

For `C#C[C@]1(O)CC[C@H]2[C@@H]3CCC4=CC(=O)CC[C@]4(C)[C@H]3CC[C@@]21C` [Ethisterone], the ThS net change was 490.

Same assay, conditions: 1280-compound library screen; ThS fluorescence net change over 16 h

Going from `CC[N+](C)(C)c1cccc(O)c1` [Edrophonium chloride] to `CCNCC(O)c1cccc(O)c1` (stereo not shown) [Etilefrine hydrochloride], the ThS net change rises from 389 to 407.

Compared with `CCOCCn1c(N2CCCN(C)CC2)nc2ccccc21` [Emedastine], `CCN1C(=O)NC(c2ccccc2)C1=O` (stereo not shown) [Ethotoin] is higher in ThS net change: 387 for the first, 394 for the second.

Compared with `COc1cc(C)nc(-n2nc(C)cc2OC)n1` [Epirizole], `CCN(CC)C(=O)c1ccc(O)c(OC)c1` [Ethamivan] is lower in ThS net change: 389 for the first, 386 for the second.

Compared with `C#Cc1cccc(Nc2ncnc3cc(OCCOC)c(OCCOC)cc23)c1` [Erlotinib], `CCOC(=O)C1=C(C)NC(C)=C(C(=O)OC)C1c1cccc(Cl)c1Cl` (stereo not shown) [Felodipine] is higher in ThS net change: 387 for the first, 405 for the second.

Going from `COC(=O)CCc1ccc(OCC(O)CNC(C)C)cc1` (stereo not shown) [Esmolol hydrochloride] to `O=C(O)Cc1ccc(-c2ccccc2)cc1` [Felbinac], the ThS net change rises from 400 to 405.

Going from `C[C@]12CC[C@@H]3c4ccc(O)cc4CC[C@H]3[C@@H]1CC[C@@H]2O` [Estradiol-17 beta] to `C#C[C@]1(O)CC[C@H]2[C@@H]3CCc4cc(OC)ccc4[C@H]3CC[C@@]21C` [Ethynylestradiol 3-methyl ether], the ThS net change rises from 384 to 406.

Compared with `C=C(CC)C(=O)c1ccc(OCC(=O)O)c(Cl)c1Cl` [Ethacrynic acid], `O=C(O)Cc1sc(-c2ccccc2)nc1-c1ccc(Cl)cc1` [Fentiazac] is lower in ThS net change: 412 for the first, 382 for the second.

Going from `CC1CC(OC(=O)C(O)c2ccccc2)CC(C)(C)N1C` (stereo not shown) [Eucatropine hydrochloride] to `NC(N)=Nc1nc(CSCCC(N)=NS(N)(=O)=O)cs1` [Famotidine], the ThS net change rises from 387 to 390.

Same assay, conditions: 1280-compound library screen; […]

First: C[C@]12CC[C@H]3C(=CCc4cc(O)ccc43)[C@@H]1CCC2=O [Equilin]
Second: C[C@]12CC[C@@H]3c4ccc(OC(=O)N(CCCl)CCCl)cc4CC[C@H]3[C@@H]1CC[C@@H]2O [Estramustine]
The ThS net change of the first is lower: 389 for the first, 407 for the second.

Compared with `CNC(=O)Oc1ccc2c(c1)[C@]1(C)CCN(C)[C@@H]1N2C` [Eserine hemisulfate salt], `CC(Cc1ccc(O)cc1)NCC(O)c1cc(O)cc(O)c1` (stereo not shown) [Fenoterol hydrobromide] is higher in ThS net change: 395 for the first, 405 for the second.

Work on `CC(O)(P(=O)([O-])O)P(=O)([O-])O.[Na+].[Na+]` [Etidronic acid, disodium salt] yielded a ThS net change of 392.

Same assay, conditions: flag: p-tau aggregation inhibitor, ThS net change more than 2 SD from mean

With `COC(=O)Nc1nc2ccc(Sc3ccccc3)cc2[nH]1` [Fenbendazole] the “PTAI>2SD” value was “*”.

Same assay, conditions: library screen, ThS fluorescence net change over 16 h with p-tau

Going from `CCN(CC)C(=O)/C(C#N)=C/c1cc(O)c(O)c([N+](=O)[O-])c1` [Entacapone] to `Oc1ccc(C2CNCCc3c2cc(O)c(O)c3Cl)cc1` (stereo not shown) [Fenoldopam], the ThS net change rises from 199 to 310.

Compared with `CC[C@H]1OC(=O)[C@H](C)[C@@H](O[C@H]2C[C@@](C)(OC)[C@@H](O)[C@H](C)O2)[C@H](C)[C@@H](O[C@@H]2O[C@H](C)C[C@H](N(C)C)[C@H]2O)[C@](C)(O)C[C@@H](C)C(=O)[C@H](C)[C@@H](O)[C@]1(C)O` [Erythromycin], `COC(=O)Nc1nc2ccc(Sc3ccccc3)cc2[nH]1` [Fenbendazole] is lower in ThS net change: 314 for the first, 148 for the second.

Same assay, conditions: p-tau aggregation modulator screen of 1280-compound library; ThS fluorescence net change

Compared with `CCn1cc(C(=O)O)c(=O)c2cc(F)c(N3CCNCC3)nc21` [Enoxacin], `CCN1CCN(c2cc3c(cc2F)c(=O)c(C(=O)O)cn3C2CC2)CC1` [Enrofloxacin] is lower in ThS net change: 378 for the first, 364 for the second.

First: CN(C)CCC[C@@]1(c2ccc(F)cc2)OCc2cc(C#N)ccc21 [Escitalopram oxalate]
Second: O=C(COc1ccc(Cl)cc1)N1CCN(Cc2ccc3c(c2)OCO3)CC1 [Fipexide hydrochloride]
The ThS net change of the first is higher: 374 for the first, 359 for the second.

Going from `C[C@]12CC[C@@H]3c4ccc(O)cc4CC[C@H]3[C@@H]1CCC2=O` [Estrone] to `C[C@]12CC[C@@H]3c4ccc(OS(=O)(=O)O)cc4CC[C@H]3[C@@H]1CCC2=O` [Estropipate], the ThS net change rises from 344 to 359.

First: CC[C@@H](CO)NCCN[C@@H](CC)CO [Ethambutol dihydrochloride]
Second: CCCCC(O)c1ccccc1 (stereo not shown) [Fenipentol]
The ThS net change of the first is lower: 344 for the first, 375 for the second.

Going from `CCc1cc(C(N)=S)ccn1` [Ethionamide] to `CCN(CC)C(C)CN1c2ccccc2Sc2ccccc21` (stereo not shown) [Ethopropazine hydrochloride], the ThS net change falls from 360 to 336.

Compared with `C#C[C@]1(OC(C)=O)CC[C@H]2[C@@H]3CCC4=C[C@@H](OC(C)=O)CC[C@@H]4[C@H]3CC[C@@]21C` [Ethynodiol diacetate], `CC(C)(C)NC(=O)[C@H]1CC[C@H]2[C@@H]3CC[C@H]4NC(=O)C=C[C@]4(C)[C@H]3CC[C@]12C` [Finasteride] is lower in ThS net change: 355 for the first, 346 for the second.

Compared with `Cc1ccc(-c2ncc(Cl)cc2-c2ccc(S(C)(=O)=O)cc2)cn1` [Etoricoxib], `O=C(O)CCC(=O)c1ccc(-c2ccccc2)cc1` [Fenbufen] is lower in ThS net change: 376 for the first, 368 for the second.

Compared with `C=C1C[C@@H]2[C@H](CC[C@]3(C)C(=O)CC[C@@H]23)[C@@]2(C)C=CC(=O)C=C12` [Exemestane], `Cc1c(-c2ccccc2)oc2c(C(=O)OCCN3CCCCC3)cccc2c1=O` [Flavoxate hydrochloride] is lower in ThS net change: 373 for the first, 359 for the second.

Compared with `CC(NCCC(c1ccccc1)c1ccccc1)c1ccccc1` (stereo not shown) [Fendiline hydrochloride], `O=C1NCC2(CCN(CCc3ccccc3)CC2)O1` [Fenspiride hydrochloride] is higher in ThS net change: 335 for the first, 362 for the second.

Molecule `O=C(NCC1CCCCN1)c1cc(OCC(F)(F)F)ccc1OCC(F)(F)F` (stereo not shown) [Flecainide acetate] has a ThS net change of 354.

Same assay, conditions: p-tau aggregation modulator screen of 1280-compound library; […]

Work on `CC(C(=O)[O-])c1cccc(Oc2ccccc2)c1.CC(C(=O)[O-])c1cccc(Oc2ccccc2)c1.O.O.[Ca+2]` (stereo not shown) [Fenoprofen calcium salt dihydrate] yielded a ThS net change of 366.

Same assay, conditions: p-tau aggregation modulator screen of the compound library, ThS fluorescence net change

Compared with `O=C1Nc2ccc(Cl)cc2[C@@](C#CC2CC2)(C(F)(F)F)O1` [Efavirenz], `C[C@]12CC[C@@H]3c4ccc(O)cc4CC[C@H]3[C@@H]1C[C@@H](O)[C@@H]2O` [Estriol] is higher in ThS net change: 436 for the first, 440 for the second.

Compared with `CCOC(=O)[C@H](CCc1ccccc1)N[C@@H](C)C(=O)N1CCC[C@H]1C(=O)O` [Enalapril maleate], `NC(=O)OCC(COC(N)=O)c1ccccc1` [Felbamate] is lower in ThS net change: 2088 for the first, 439 for the second.

First: C=CCOC(Cn1ccnc1)c1ccc(Cl)cc1Cl (stereo not shown) [Enilconazole]
Second: CC(C)OC(=O)C(C)(C)Oc1ccc(C(=O)c2ccc(Cl)cc2)cc1 [Fenofibrate]
The ThS net change of the first is lower: 461 for the first, 531 for the second.

Compared with `CCCCC(=O)O[C@H]1CC[C@H]2[C@@H]3CCc4cc(O)ccc4[C@H]3CC[C@]12C` [Estradiol Valerate], `C#C[C@]1(O)CC[C@H]2[C@@H]3CCc4cc(O)ccc4[C@H]3CC[C@@]21C` [Ethinylestradiol] is higher in ThS net change: 417 for the first, 451 for the second.

First: O=C(Cn1ccnc1[N+](=O)[O-])NCCO [Etanidazole]
Second: Cn1c(=O)c2c(ncn2CCO)n(C)c1=O [Etofylline]
The ThS net change of the first is higher: 461 for the first, 422 for the second.

First: O=S(=O)(O)c1cc(O)ccc1O [Ethamsylate]
Second: CCOc1ccc2nc(S(N)(=O)=O)sc2c1 [Ethoxzolamide]
The ThS net change of the first is higher: 455 for the first, 428 for the second.

First: CCOc1ccc(Cc2nccc3cc(OCC)c(OCC)cc23)cc1OCC [Ethaverine hydrochloride]
Second: CCOc1ccc2c(c1)C(C)=CC(C)(C)N2 [Ethoxyquin]
The ThS net change of the first is lower: 439 for the first, 460 for the second.

Going from `CCC1(C)CC(=O)NC1=O` (stereo not shown) [Ethosuximide] to `CCc1cccc2c3c([nH]c12)C(CC)(CC(=O)O)OCC3` (stereo not shown) [Etodolac], the ThS net change rises from 433 to 443.

First: CCc1cccc(CC)c1NC(=O)CN(CC(=O)O)CC(=O)O [Etifenin]
Second: O=C(OCCOCCO)c1ccccc1Nc1cccc(C(F)(F)F)c1 [Etofenamate]
The ThS net change of the first is lower: 414 for the first, 425 for the second.

First: COc1cc([C@@H]2c3cc4c(cc3[C@@H](O[C@@H]3O[C@@H]5CO[C@@H](C)O[C@H]5[C@H](O)[C@H]3O)[C@H]3COC(=O)[C@H]23)OCO4)cc(OC)c1O [Etoposide]
Second: O=C1[C@H](CC[C@H](O)c2ccc(F)cc2)[C@@H](c2ccc(O)cc2)N1c1ccc(F)cc1 [Ezetimibe]
The ThS net change of the first is lower: 413 for the first, 466 for the second.

First: CCOC(=O)/C=C(C)/C=C/C=C(C)/C=C/c1c(C)cc(OC)c(C)c1C [Etretinate]
Second: CC(=O)OCC(CCn1cnc2cnc(N)nc21)COC(C)=O [Famciclovir]
The ThS net change of the first is lower: 420 for the first, 459 for the second.

Compared with `CC(C)(C(=O)O)c1ccc(C(O)CCCN2CCC(C(O)(c3ccccc3)c3ccccc3)CC2)cc1` (stereo not shown) [Fexofenadine HCl], `CN1CCN(c2c(F)cc3c(=O)c(C(=O)O)cn(CCF)c3c2F)CC1` [Fleroxacin] is lower in ThS net change: 435 for the first, 424 for the second.
